Experimental data reported in US8044029B2, “Sulfatides for treatment of autoimmune disorders” (Torrey Pines Institute for Molecular Studies, priority 2005, dated 2011).

Tested on: chronic-relapsing EAE in SJL/J mice
Experiment: Chronic-relapsing EAE, PLP139-151-immunized SJL/J mice
Type: in vivo, mouse
Settings: 20 μg intraperitoneally at the onset of EAE, FIG. 3
Procedure: (§1) Wild type, SJL/J female mice, 6-8 week of age were immunized once subcutaneously with 75 μg of proteolipid protein peptide PLP139-151 emulsified in incomplete Freund's adjuvant (Difco, Detroit, Mich., USA) supplemented with attenuated M. tuberculosis (DIFCO) to 2 mg/ml. Mice were observed daily for signs of EAE for 50 days. The average disease score for each group was calculated by averaging the maximum severity of all of the affected animals in the group. Disease severity was scored on a 5-point scale, as described earlier: 1, flaccid tail; 2, hind limb weakness; 3, hind limb paralysis; 4, whole body paralysis; 5, moribund or death.
In the treatment protocol, 20 μg of bovine brain sulfatide in 200 μl of PBS or vehicle was given intraperitoneally at the onset of EAE and 2 weeks later. […]
as §1, with “wk” for “week”, “PLP139-151” for “proteolipid protein”, “peptide” for “peptide PLP139-151”, “IFA (DIFCO)” for “incomplete Freund's adjuvant (Difco, Detroit, Mich., USA)”, “Mice were observed daily for signs of EAE for 50 days.” left out, “death. […]” for “death.”

CCCCCCCC/C=C\CCCCCCCCCCCCCC(=O)N[C@@H](CO[C@@H]1O[C@H](CO)[C@H](O)[C@H](OS(=O)(=O)O)[C@H]1O)[C@H](O)/C=C/CCCCCCCCCCCCC [cis-tetracosenoyl sulfatide, (2S, 3R, 4E)-N-nervonic-1-[-D-(3-sulfate)-galactopyranosyl]-2-amino-octadecene-3-ol]
effect on ongoing chronic-relapsing EAE (disease score, 5-point scale): reverses ongoing chronic-relapsing EAE
